From patent US4474977A, “Amino-alcohol derivatives” (Continental Pharma S.A., priority 1977, dated 1984) come the findings set out here.

In experiment [1] the test system is guinea pig ileum. The experiment is described as follows: antispasmodic activity against contractions of guinea pig ileum induced by histamine and acetylcholine. Particulars: Cavia porcellus. On the procedure: The antispasmodic activity of the products according to the invention was tested against contractions of guinea pig ileum, such as induced by histamine and acetylcholine. These tests allow to reveal an antihistaminic activity, an anticholinergic activity or a musculotropic antispasmodic activity. The response to the contracting agent (submaximum concentration)was repeated every 5 minutes before and after injection of increasing doses of the tested products (10^-8 to 10^-5 M). The various doses were added at intervals of 20 minutes or of the time necessary to the development of the maximum effect.
The percentage of inhibition under the influence of tested products was calculated and the theoretical concentration ensuring 50% inhibition was graphically determined for each experience. These values were expressed as -log IC50 (M). The standard value for papaverine was 4.50, namely an effective concentration of 30 μM.

Experiment [2] relates to epididymal fat of the rat. Briefly: effect on in vitro induced lipolysis in epididymal fat of the rat. Conditions: in words. The method, then: The effect on the in vitro induced lipolysis in the epididymal fat of the rat was measured by colorimetry of fatty acids liberated during the tissue incubation under the experimental conditions such as described hereinafter.
Male Sprague-Dawley rats weighing about 250 gr were sacrified by cervical dislocation after a fasting period of 18 hours. The quickly taken-off epididymal fat was placed in a Krebs-Ringer phosphate buffer at pH 7.4, containing 1% albumin.
The tissue was cut into fragments of ±20 mgr, which were dried on filter paper and homogeneously distributed in groups of ±150 mgr weighed with precision. Each group was pre-incubated (15 minutes, 37° C., stirring) in 5 ml of Krebs-Ringer phosphate buffer (pH 7.4) containing 7% of bovine albumin and the product to be tested.
After pre-incubation, 1 ml of the medium is taken off for determining the amount of basic lipolysis. The induction agent in solution in 0.1 ml of phosphate buffer is then added to 4 ml of the remaining medium and after incubation of 90 minutes under the same conditions, liberated fatty acids are titrated in 1 ml of medium according to a variant of the colorimetric method of W. G. Duncombe (Biochem. J., 83, 6P, 1962; Biochem. J., 88, 7-10, 1963; Clin. Chem. Acta, 9, 122-125, 1964).

Experiment [3] concerns human platelet rich plasma (PRP). The experiment is described as follows: blood platelet aggregation (Born method) in human platelet rich plasma. Type of experiment: cell-based. Conditions: 24 μl of 2×10^-2 M solution added to 300 μl PRP; induced by thrombofax or collagen; in words. On the procedure: The blood platelet aggregation was studied according to the Born Method (J. Physiol., 168, 178, 1963). Nine volumes of human venous blood were taken off and anticoagulated with one volume of a trisodium citrate solution (0.129 M). The blood was centrifuged at 200 g for 10 minutes (22° C.) for preparing the platelet rich plasma (PRP). Methanol or acetone was used in order to obtain 2×10^-2 M solutions of the various involved products, 24 μl of each product were added to 300 μl of PRP. For controls, 24 μl of the various hereinabove mentioned solvents were used. The products were pre-incubated in the presence of PRP for 4 minutes at 37° C. under continuous stirring (1100 rpm). After this incubation period, the platelet aggregation was induced by addition of 100 μl of thrombofax or collagen. The aggregation phenomenon was quantified by graphical determination of the aggregation amplitude (A).
The inhibition percentage of the agglutination amplitude was calculated as follows:
A (% inhibition): 100-(Ax /Ao)×100
Ax : value of aggregation amplitude in the presence of examined products
Ao : value of aggregation amplitude for controls

For experiment [4], the system named is femoral arterial circulation. Briefly: peripheral vasodilator activity on anaesthetized dog, femoral arterial perfusion pressure. The format is in vivo. Particulars: 30 μg/kg injected in femoral perfusion (some also at other doses); in words. On the procedure: The peripheral vasodilator activity of the products according to the invention was measured on anaesthetized dog at the level of the femoral arterial circulation. To this end, the femoral artery the collaterals of which were ligaturated was perfused with a constant flow rate of blood taken from aorta. Thus the perfusion pressure measured at the level of the femoral artery, varied as a function of the resistance of perfused area. The tested products and the corresponding solvents were directly injected in the system at the dose of 30 μg/kg. The blood circulation rate being maintained constant, a vasodilation was thus measured by a decrease of the perfusion pressure. The latter is rated in comparison with the action of papaverine considered as standard and injected once per group of 4 products.
When being of interest, the products were tested at other doses under the same conditions. The vasodilation activity was rated as follows:
+: 1/3 of the papaverine activity
++: 2/3 of the papaverine activity
+++: activity equal to that of papaverine (i.e. 30 to 40 mm Hg)
++++: activity higher than that of papaverine.

Experiment [5] has as its system spontaneously hypertensive rats. Briefly: antihypertensive activity, oral administration to non-anesthetized spontaneously hypertensive rats, systolic arterial pressure (plethysmographic). The format is in vivo, rat. Conditions: 60 mgr/kg oral (some also at other doses); in words. On the procedure:
Their antihypertensive activity was tested by oral administration to non-anesthetized, spontaneously hypertensive rats, on which the systolic arterial pressure is measured at the level of the median coccygeal artery by means of a plethysmographic method (J. Roba, G. Lambelin, A. F. De Schaepdryver, Arch. int. Pharmacodyn., 200, 182, 1972). The arterial pressure was measured every 30 minutes from two hours before to three hours after oral administration of 60 mgr/kg of the tested products or of a placebo (1% tragacanth gum mucilage). When being of interest, the products were tested at other doses under similar conditions. Only rats having a systolic pressure of 180 to 220 mm Hg were used. Two rats were used for each product. The treatments were made without the knowledge of the person making the measures. The antihypertensive effects were rated as follows:
+: reduction of 10 to 20 mm Hg
++: reduction of 20 to 30 mm Hg
+++: reduction of 30 to 50 mm Hg
++++: reduction >50 mm Hg

The mark [6] stands for this setting: 50% inhibition of contractions, converted from -log IC50, read-out: effective concentration / concentration corresponding to -log IC50 (converted).
Where [7] appears, read: contractions induced by histamine and acetylcholine, 10^-8 to 10^-5 M, read-out: -log IC50 (M), antispasmodic activity (converted).
Where [8] appears, read: read-out: -log IC50 (M), antispasmodic activity (converted).
Where [9] appears, read: read-out: effective concentration / concentration corresponding to -log IC50 (converted).

Read-outs that look alike come from different tables or passages of the source.

On to `CCCCCCCCNC(C)C(OC(=O)C(C)(C)C)c1ccc(SC(C)C)cc1` (stereo not shown) [Compound 1], for which the IC50 in experiment [1] (setting [6]) and in experiment [1] (setting [7]) was less than 1e-06 M each time. For the same compound, the “effect on induced lipolysis” value in experiment [2] was “active”.

In the case of `CCCCCCCCNC(C)C(OC(C)=O)c1ccc(SC(C)C)cc1.Cl` (stereo not shown) [Compound 3, 1-Acetyloxy-1-(4-isopropylthiophenyl)-2-n-octylaminopropane hydrochloride], the anti-aggregation effect result in experiment [3] was “strong anti-aggregation effect”. Also, the IC50 in experiment [1] (setting [8]) and in experiment [1] (setting [9]) was less than 1e-06 M in each case. Further, the “peripheral vasodilator activity (compared with papaverine)” value in experiment [4] is on record as “at least equal to that of papaverine”.

With `CC(C)Oc1ccc(C(OC(=O)C2CCCCC2)C(C)NCCCCc2ccccc2)cc1` (stereo not shown) [Compound 20], in experiment [5], the antihypertensive activity result was “suitable antihypertensive activity”. For the same compound, the IC50 in experiment [1] (setting [6]) and in experiment [1] (setting [7]) was less than 1e-06 M throughout. The “peripheral vasodilator activity (compared with papaverine)” value in experiment [4] is on record as “at least equal to that of papaverine”.

For `CC(=O)OC(c1ccc(SC(C)C)cc1)C(C)NCCCCc1ccccc1` (stereo not shown) [Compound 27], in experiment [5], the antihypertensive activity entry was “suitable antihypertensive activity”. For the same compound, the IC50 in experiment [1] (setting [8]) and in experiment [1] (setting [9]) was less than 1e-06 M throughout. For the same compound, the “peripheral vasodilator activity (compared with papaverine)” value in experiment [4] is given as “at least equal to that of papaverine”.

In the case of `CCCCCCCCNC(C)C(OC(=O)CC(C)(C)C)c1ccc(SC(C)C)cc1.Cl` (stereo not shown) [Compound 30, 1-neopentylcarbonyloxy-1-(4-isopropylthiophenyl)-2-n-octylaminopropane (hydrochloride)], the anti-aggregation effect entry in experiment [3] was “strong anti-aggregation effect”. Besides, in experiment [5], the antihypertensive activity result is listed as “suitable antihypertensive activity”. In experiment [1] (setting [7]), the IC50 is less than 1e-06 M.

Consider `CCCCCCCCNC(C)C(O)c1ccc(OC)cc1` (stereo not shown) [Compound 74, 1-(4-methoxyphenyl)-2-n-octylamino-1-propanol], for which the “peripheral vasodilator activity (compared with papaverine)” value in experiment [4] is “at least equal to that of papaverine”. Besides, the “effect on induced lipolysis” value in experiment [2] is given as “active”.

As to `CCCCCCCCNC(C)C(O)c1ccc(C)cc1` (stereo not shown) [Compound 75], in experiment [2], the “effect on induced lipolysis” value is listed as “active”.

On to `CCCCCCCCNC(C)C(O)c1ccccc1` (stereo not shown) [Compound 76], for which, in experiment [2], the “effect on induced lipolysis” value is reported as “active”.
